# Assay results as given in ChEMBL document CHEMBL1201862, “PubChem BioAssay data set” (2004).
# The source made the active and inactive calls.
# Experiments:
# Format in all cases: functional
# [1] = target: Macrophage colony-stimulating factor 1 receptor (Homo sapiens, UniProt P07333);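 also: value comes from the Navigating the Kinome screening panel, CSF1R member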
# [2] = target: Tyrosine-protein kinase ABL1 (Homo sapiens, UniProt P00519)
# [3] = target: LIM domain kinase 1 (Homo sapiens, UniProt P53667); assay: Navigating the Kinome. Panel member name: LIMK1
# [4] = target: Platelet-derived growth factor receptor alpha (Homo sapiens, UniProt P16234); assay: Navigating the Kinome. Panel member name: PDGFRA
# [5] = target: Mitogen-activated protein kinase kinase kinase kinase 4 (Homo sapiens, UniProt O95819)
# Sequence of Mitogen-activated protein kinase kinase kinase kinase 4 (O95819 whole entry): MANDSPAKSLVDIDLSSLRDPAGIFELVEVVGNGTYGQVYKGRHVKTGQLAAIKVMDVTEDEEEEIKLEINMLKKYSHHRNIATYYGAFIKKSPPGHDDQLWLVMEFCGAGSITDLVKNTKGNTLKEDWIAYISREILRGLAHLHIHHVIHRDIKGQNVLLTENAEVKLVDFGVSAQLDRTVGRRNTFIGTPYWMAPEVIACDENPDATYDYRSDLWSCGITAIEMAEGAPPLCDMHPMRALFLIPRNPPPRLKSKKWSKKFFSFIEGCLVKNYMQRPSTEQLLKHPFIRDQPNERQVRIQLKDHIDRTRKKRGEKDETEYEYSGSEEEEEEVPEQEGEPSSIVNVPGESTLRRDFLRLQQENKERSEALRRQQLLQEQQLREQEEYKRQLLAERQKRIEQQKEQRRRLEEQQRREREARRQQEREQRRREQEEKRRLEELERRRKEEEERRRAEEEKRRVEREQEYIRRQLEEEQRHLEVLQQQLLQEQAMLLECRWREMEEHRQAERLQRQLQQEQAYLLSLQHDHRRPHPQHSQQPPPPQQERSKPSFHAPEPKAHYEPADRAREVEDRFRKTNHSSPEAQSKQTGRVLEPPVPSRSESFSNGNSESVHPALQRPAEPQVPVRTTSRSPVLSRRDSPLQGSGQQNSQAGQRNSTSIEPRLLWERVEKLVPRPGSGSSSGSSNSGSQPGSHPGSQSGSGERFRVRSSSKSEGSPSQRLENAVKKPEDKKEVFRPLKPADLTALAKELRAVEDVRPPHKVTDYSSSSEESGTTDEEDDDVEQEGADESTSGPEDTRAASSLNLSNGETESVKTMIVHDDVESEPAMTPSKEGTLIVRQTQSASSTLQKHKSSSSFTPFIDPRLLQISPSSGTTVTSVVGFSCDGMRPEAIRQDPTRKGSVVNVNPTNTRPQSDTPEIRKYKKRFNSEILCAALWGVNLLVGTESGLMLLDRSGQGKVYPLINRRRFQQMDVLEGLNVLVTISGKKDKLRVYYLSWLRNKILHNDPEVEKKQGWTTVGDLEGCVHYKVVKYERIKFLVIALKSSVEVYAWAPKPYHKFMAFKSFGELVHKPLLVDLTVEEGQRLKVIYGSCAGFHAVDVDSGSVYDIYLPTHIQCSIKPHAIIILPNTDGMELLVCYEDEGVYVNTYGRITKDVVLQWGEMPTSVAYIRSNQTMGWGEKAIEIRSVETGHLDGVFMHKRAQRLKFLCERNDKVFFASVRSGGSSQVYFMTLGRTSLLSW
# [6] = target: Dual specificity tyrosine-phosphorylation-regulated kinase 1A (Homo sapiens, UniProt Q13627);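 also: measured against DYRK1A as one member of a broad kinome profiling panel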
# [7] = target: Tyrosine-protein kinase Lck (Homo sapiens, UniProt P06239);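 also: lck was assayed as one member of a kinase panel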
# Sequence of Tyrosine-protein kinase Lck (P06239 whole entry): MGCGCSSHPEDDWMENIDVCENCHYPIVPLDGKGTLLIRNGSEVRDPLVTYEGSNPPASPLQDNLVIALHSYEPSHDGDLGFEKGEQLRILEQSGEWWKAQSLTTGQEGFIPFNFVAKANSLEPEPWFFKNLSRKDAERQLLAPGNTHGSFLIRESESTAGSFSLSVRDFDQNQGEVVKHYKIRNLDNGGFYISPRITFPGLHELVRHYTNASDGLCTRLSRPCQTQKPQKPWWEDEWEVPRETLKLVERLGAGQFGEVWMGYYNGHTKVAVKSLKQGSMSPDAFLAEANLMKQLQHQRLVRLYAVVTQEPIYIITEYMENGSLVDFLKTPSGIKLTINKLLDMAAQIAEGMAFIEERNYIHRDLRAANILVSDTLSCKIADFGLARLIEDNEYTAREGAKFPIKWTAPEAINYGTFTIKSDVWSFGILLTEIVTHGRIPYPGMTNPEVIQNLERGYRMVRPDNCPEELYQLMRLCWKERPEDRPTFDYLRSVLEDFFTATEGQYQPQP
# [8] = target: Serine/threonine-protein kinase Chk1 (Homo sapiens, UniProt O14757);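 also: measured as one member of a kinome-wide kinase profiling panel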
# [9] = target: Cyclin-dependent kinase 7 (Homo sapiens, UniProt P50613);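 also: value comes from a kinome-wide kinase profiling panel in which CDK7 is one member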
# [10] = target: cAMP-dependent protein kinase catalytic subunit alpha (Homo sapiens, UniProt P17612)
# [11] = target: Aurora kinase B (Homo sapiens, UniProt Q96GD4)
# Sequence of Aurora kinase B (Q96GD4 whole entry): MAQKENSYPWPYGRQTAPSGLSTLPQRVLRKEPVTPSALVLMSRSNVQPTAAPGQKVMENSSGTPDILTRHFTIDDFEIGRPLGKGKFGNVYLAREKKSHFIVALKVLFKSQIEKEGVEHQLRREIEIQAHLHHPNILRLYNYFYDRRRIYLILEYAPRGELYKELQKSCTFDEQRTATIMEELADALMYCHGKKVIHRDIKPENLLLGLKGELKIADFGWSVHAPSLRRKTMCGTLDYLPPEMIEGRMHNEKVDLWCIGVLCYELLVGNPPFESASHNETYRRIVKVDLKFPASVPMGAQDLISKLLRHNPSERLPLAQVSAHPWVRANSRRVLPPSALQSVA
# [12] = target: Mitogen-activated protein kinase kinase kinase kinase 2 (Homo sapiens, UniProt Q12851);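 also: measured as one member of a kinome-wide kinase panel, with MAP4K2 as the panel entry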
# [13] = target: Receptor-type tyrosine-protein kinase FLT3 (Homo sapiens, UniProt P36888);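 also: FLT3 was tested as one member of a kinome-wide kinase panel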
# [14] = target: Cyclin-dependent kinase 9 (Homo sapiens, UniProt P50750);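 also: value from the CDK9 entry of a kinome-spanning kinase panel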
# Sequence of Cyclin-dependent kinase 9 (P50750 whole entry): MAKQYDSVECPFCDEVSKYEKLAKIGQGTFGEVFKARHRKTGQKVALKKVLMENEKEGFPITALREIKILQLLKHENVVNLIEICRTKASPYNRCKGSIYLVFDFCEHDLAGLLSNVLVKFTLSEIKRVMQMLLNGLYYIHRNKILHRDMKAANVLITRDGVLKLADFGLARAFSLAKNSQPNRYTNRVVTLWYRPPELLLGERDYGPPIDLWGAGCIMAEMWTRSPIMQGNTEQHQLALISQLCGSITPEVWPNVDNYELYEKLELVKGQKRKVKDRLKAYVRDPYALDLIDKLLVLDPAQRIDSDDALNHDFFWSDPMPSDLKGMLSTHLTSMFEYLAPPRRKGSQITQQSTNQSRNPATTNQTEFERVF
# [15] = target: Serine/threonine-protein kinase pim-1 (Homo sapiens, UniProt P11309)
# [16] = target: Vascular endothelial growth factor receptor 2 (Homo sapiens, UniProt P35968)
# [17] = target: Fibroblast growth factor receptor 1 (Homo sapiens, UniProt P11362)
# Sequence of Fibroblast growth factor receptor 1 (P11362 whole entry): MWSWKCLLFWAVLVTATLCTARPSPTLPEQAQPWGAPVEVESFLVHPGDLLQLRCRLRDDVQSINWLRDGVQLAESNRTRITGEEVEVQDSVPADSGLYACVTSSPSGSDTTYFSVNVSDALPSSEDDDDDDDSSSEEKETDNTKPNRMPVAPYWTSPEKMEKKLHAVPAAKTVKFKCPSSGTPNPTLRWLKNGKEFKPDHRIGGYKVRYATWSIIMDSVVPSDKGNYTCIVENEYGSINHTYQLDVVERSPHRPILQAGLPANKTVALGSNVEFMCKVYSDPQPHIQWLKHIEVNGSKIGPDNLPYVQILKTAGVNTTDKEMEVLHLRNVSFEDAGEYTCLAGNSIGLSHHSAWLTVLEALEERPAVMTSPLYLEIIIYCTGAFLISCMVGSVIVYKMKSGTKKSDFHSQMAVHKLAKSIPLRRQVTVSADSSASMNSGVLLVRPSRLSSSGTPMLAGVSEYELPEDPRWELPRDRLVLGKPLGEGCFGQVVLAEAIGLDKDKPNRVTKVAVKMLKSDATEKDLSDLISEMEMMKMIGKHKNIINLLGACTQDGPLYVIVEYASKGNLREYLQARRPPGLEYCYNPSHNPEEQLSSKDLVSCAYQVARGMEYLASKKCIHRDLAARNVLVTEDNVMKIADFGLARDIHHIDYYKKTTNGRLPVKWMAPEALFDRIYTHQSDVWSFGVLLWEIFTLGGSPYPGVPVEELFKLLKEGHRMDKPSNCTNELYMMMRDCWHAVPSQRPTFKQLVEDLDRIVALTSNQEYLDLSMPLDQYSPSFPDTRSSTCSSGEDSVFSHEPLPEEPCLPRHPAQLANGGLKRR
# [18] = target: Tyrosine-protein kinase receptor TYRO3 (Homo sapiens, UniProt Q06418);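 also: TYRO3 value obtained as one member of a kinome-wide profiling panel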
# [19] = target: Glycogen synthase kinase-3 beta (Homo sapiens, UniProt P49841);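 also: value comes from a broad kinome profiling panel, with GSK3B as the panel member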
# [20] = target: T1, Aurora kinase A (Homo sapiens, UniProt O14965);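 also: value from the Navigating the Kinome kinase panel profiling, panel entry STK6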
# T1 sequence (O14965 whole entry): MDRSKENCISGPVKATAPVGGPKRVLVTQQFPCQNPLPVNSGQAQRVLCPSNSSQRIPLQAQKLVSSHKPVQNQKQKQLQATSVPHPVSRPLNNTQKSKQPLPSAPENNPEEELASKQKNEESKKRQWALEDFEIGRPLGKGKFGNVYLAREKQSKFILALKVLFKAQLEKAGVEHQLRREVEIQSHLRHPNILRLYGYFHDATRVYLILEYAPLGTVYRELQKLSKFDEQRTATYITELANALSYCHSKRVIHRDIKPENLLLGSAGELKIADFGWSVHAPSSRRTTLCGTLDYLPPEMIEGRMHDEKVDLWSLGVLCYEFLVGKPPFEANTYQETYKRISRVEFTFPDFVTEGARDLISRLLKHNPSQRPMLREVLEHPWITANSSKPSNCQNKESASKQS
# [21] = target: Dual specificity mitogen-activated protein kinase kinase 1 (Homo sapiens, UniProt Q02750); assay: Navigating the Kinome. Panel member name: MAP2K1
# Sequence of Dual specificity mitogen-activated protein kinase kinase 1 (Q02750 whole entry): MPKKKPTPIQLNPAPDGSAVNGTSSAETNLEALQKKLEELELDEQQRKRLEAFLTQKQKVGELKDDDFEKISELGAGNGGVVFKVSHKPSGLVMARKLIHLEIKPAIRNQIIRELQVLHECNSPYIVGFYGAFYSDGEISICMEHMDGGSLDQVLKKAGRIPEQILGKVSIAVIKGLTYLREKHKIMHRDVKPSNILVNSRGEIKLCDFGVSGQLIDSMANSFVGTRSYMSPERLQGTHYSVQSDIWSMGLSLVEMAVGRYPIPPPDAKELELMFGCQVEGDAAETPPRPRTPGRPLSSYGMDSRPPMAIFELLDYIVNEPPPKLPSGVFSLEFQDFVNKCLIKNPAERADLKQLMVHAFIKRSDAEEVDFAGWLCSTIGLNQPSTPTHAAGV
# [22] = target: Dual specificity protein kinase CLK4 (Homo sapiens, UniProt Q9HAZ1)
# [23] = target: Cyclin-dependent kinase 8 (Homo sapiens, UniProt P49336); assay: Navigating the Kinome. Panel member name: CDK8
# [24] = target: Rho-associated protein kinase 1 (Homo sapiens, UniProt Q13464);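 also: measured within a broad kinome-wide panel profiling many kinases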
# [25] = target: Casein kinase I isoform alpha (Homo sapiens, UniProt P48729)
# [26] = target: Tyrosine-protein kinase Fyn (Homo sapiens, UniProt P06241)
# [27] = target: ALK tyrosine kinase receptor (Homo sapiens, UniProt Q9UM73);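 also: ALK tested as one member of a kinase panel screen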
# [28] = target: Mitogen-activated protein kinase 8 (Homo sapiens, UniProt P45983);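 also: value comes from one member of a kinome-wide kinase profiling panel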
# [29] = target: Activin receptor type-1 (Homo sapiens, UniProt Q04771); assay: Navigating the Kinome. Panel member name: ACVR1
# [30] = target: Cyclin-dependent kinase 5 (Homo sapiens, UniProt Q00535);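 also: CDK5 measured as one member of a kinase profiling panel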
# [31] = target: Macrophage-stimulating protein receptor (Homo sapiens, UniProt Q04912); assay: Navigating the Kinome. Panel member name: MST1R
# [32] = target: Dual specificity tyrosine-phosphorylation-regulated kinase 1B (Homo sapiens, UniProt Q9Y463); assay: Navigating the Kinome. Panel member name: DYRK1B
# Sequence of Dual specificity tyrosine-phosphorylation-regulated kinase 1B (Q9Y463 whole entry): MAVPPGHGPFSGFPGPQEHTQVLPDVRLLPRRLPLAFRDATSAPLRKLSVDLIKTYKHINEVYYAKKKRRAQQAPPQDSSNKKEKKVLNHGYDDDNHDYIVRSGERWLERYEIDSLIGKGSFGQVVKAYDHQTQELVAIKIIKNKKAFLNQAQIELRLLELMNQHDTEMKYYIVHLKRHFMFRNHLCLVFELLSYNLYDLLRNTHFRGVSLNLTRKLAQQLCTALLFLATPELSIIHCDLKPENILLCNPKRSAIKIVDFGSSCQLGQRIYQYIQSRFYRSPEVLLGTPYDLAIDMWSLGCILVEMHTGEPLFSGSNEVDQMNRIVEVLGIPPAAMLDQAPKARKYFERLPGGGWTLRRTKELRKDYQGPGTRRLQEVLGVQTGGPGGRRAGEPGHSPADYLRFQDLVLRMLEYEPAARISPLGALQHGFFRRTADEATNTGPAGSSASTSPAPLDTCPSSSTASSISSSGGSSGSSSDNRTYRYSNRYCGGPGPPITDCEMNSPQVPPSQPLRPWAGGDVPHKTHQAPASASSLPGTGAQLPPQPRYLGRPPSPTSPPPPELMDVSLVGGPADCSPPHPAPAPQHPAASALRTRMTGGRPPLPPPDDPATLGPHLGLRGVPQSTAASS
# [33] = target: Leucine-rich repeat serine/threonine-protein kinase 2 (Homo sapiens, UniProt Q5S007);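 also: value from a broad kinome-wide panel profiling study in which LRRK2 was one of the kinases tested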
# [34] = target: Protein kinase C theta type (Homo sapiens, UniProt Q04759); assay: Navigating the Kinome. Panel member name: PRKCQ
# Sequence of Protein kinase C theta type (Q04759 whole entry): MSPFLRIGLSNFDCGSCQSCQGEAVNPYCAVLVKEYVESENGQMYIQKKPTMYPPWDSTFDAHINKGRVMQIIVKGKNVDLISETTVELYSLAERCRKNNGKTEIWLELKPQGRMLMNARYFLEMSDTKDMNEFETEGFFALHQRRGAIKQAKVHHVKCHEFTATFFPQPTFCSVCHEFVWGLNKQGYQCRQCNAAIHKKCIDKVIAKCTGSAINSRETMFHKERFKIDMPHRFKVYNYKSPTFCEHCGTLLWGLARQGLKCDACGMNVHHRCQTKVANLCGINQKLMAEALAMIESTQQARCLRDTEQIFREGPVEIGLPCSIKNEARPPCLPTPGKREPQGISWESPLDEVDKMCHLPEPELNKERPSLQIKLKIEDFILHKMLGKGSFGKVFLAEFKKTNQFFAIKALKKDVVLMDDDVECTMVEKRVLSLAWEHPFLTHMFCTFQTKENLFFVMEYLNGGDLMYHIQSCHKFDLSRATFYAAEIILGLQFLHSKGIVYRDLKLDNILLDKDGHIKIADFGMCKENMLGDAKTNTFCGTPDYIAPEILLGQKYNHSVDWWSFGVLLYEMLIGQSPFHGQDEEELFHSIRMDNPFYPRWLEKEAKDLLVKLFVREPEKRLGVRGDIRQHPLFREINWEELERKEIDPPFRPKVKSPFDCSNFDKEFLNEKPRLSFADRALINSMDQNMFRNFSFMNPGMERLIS
# [35] = target: Leukocyte tyrosine kinase receptor (Homo sapiens, UniProt P29376); assay: Navigating the Kinome. Panel member name: LTK
# [36] = target: Hepatocyte growth factor receptor (Homo sapiens, UniProt P08581);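 also: kinase panel profiling across the kinome, with MET as the panel member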
smiles,measurement,setting,value
Cc1cccc(-c2cccc3onc(N)c23)c1,Ki,[1],15.8 µM (active)
same,Ki,[2],25.1 µM (active)
same,Ki,[3],20 µM (active)
same,Ki,[4],15.8 µM (active)
same,Ki,[5],10 µM (active)
same,Ki,[6],12.6 µM (active)
same,Ki,[7],100 µM (active)
same,Ki,[8],39.8 µM (active)
same,Ki,[9],50.1 µM (active)
same,Ki,[10],10 µM (active)
same,Ki,[11],6.31 µM (active)
same,Ki,[12],3.16 µM (active)
same,Ki,[13],63.1 µM (active)
same,Ki,[14],39.8 µM (active)
same,Ki,[15],5.01 µM (active)
same,Ki,[16],100 µM (active)
same,Ki,[17],79.4 µM (active)
same,Ki,[18],31.6 µM (active)
same,Ki,[19],39.8 µM (active)
same,Ki,[20],> 63.1 µM (inactive)
same,Ki,[21],2 µM (active)
same,Ki,[22],5.01 µM (active)
same,Ki,[23],3.16 µM (active)
same,Ki,[24],10 µM (active)
same,Ki,[25],25.1 µM (active)
same,Ki,[26],79.4 µM (active)
same,Ki,[27],100 µM (active)
same,Ki,[28],39.8 µM (active)
same,Ki,[29],3.16 µM (active)
same,Ki,[30],5.01 µM (active)
same,Ki,[31],50.1 µM (active)
same,Ki,[32],10 µM (active)
same,Ki,[33],15.8 µM (active)
same,Ki,[34],> 100 µM (inactive)
same,Ki,[35],7.94 µM (active)
same,Ki,[36],31.6 µM (active)
